From PubChem BioAssay AID220 (DTP/NCI, 2004)
“And” between values parts separate entries of the source, which are not always exact repeats. Equal entries are not always repeated. Records with an inconclusive call do not appear.

System: CD8F1 mice, subcutaneous mammary adenocarcinoma, T/C%
Test: NCI In Vivo Anticancer Drug Screen. Data for tumor model Mammary Adenocarcinoma CD8F1 (subcutaneous) in CD8F1
Settings: higher = larger tumour
Outline: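 Compound-treated versus vehicle-treated mice with transplantable tumors; survival or tumor size compared as T/C.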

[1] = endpoint: median tumor weight (est.), dose: 12.5 mg/kg/injection, schedule: Q07DX005 (ip), vehicle: Klucel (hydroxypropylcellulose) (HPC)
[2] = endpoint: median tumor weight (est.), dose: 25.0 mg/kg/injection, schedule: Q07DX005 (ip), vehicle: Klucel (hydroxypropylcellulose) (HPC)
[3] = endpoint: median tumor weight (est.), dose: 50.0 mg/kg/injection, schedule: Q07DX005 (ip), vehicle: Klucel (hydroxypropylcellulose) (HPC)
[4] = endpoint: median tumor weight (est.), dose: 100.0 mg/kg/injection, schedule: Q07DX005 (ip), vehicle: Klucel (hydroxypropylcellulose) (HPC)
[5] = endpoint: median tumor weight (est.), dose: 12.5 mg/kg/injection, schedule: Q07DX005 (ip), vehicle: saline
[6] = endpoint: median tumor weight (est.), dose: 25.0 mg/kg/injection, schedule: Q07DX005 (ip), vehicle: saline
[7] = endpoint: median tumor weight (est.), dose: 50.0 mg/kg/injection, schedule: Q07DX005 (ip), vehicle: saline
[8] = endpoint: median tumor weight (est.), dose: 100.0 mg/kg/injection, schedule: Q07DX005 (ip), vehicle: saline
[9] = endpoint: median tumor weight (est.), dose: 200.0 mg/kg/injection, schedule: Q07DX005 (ip), vehicle: saline
[10] = endpoint: median tumor weight change, dose: 125.0 mg/kg/injection, schedule: Q01DX001 (ip), vehicle: saline with Tween-80
[11] = endpoint: median tumor weight change, dose: 250.0 mg/kg/injection, schedule: Q01DX001 (ip), vehicle: saline with Tween-80
[12] = endpoint: median tumor weight (est.), dose: 20.0 mg/kg/injection, schedule: Q07DX005 (ip), vehicle: saline with Tween-80
[13] = endpoint: median tumor weight (est.), dose: 400.0 mg/kg/injection, schedule: Q07DX005 (ip), vehicle: saline

## CNc1nc(NC)nc(NC)n1
[1]
  T/C: 83 % of control
endpoint: median tumor weight (est.), dose: 12.5 mg/kg/injection, schedule: Q07DX006 (ip), vehicle: Klucel (hydroxypropylcellulose) (HPC)
  T/C: 86 % of control
[2]
  T/C: 163 % of control
endpoint: median tumor weight (est.), dose: 25.0 mg/kg/injection, schedule: Q07DX006 (ip), vehicle: Klucel (hydroxypropylcellulose) (HPC)
  T/C: 72 % of control
[3]
  T/C: 107 % of control
endpoint: median tumor weight (est.), dose: 50.0 mg/kg/injection, schedule: Q07DX006 (ip), vehicle: Klucel (hydroxypropylcellulose) (HPC)
  T/C: 203 % of control
[4]
  T/C: 93 % of control
endpoint: median tumor weight (est.), dose: 100.0 mg/kg/injection, schedule: Q07DX006 (ip), vehicle: Klucel (hydroxypropylcellulose) (HPC)
  T/C: 294 % of control
endpoint: median tumor weight (est.), dose: 200.0 mg/kg/injection, schedule: Q07DX005 (ip), vehicle: Klucel (hydroxypropylcellulose) (HPC)
  T/C: 174 % of control
endpoint: median tumor weight (est.), dose: 200.0 mg/kg/injection, schedule: Q07DX006 (ip), vehicle: Klucel (hydroxypropylcellulose) (HPC)
  T/C: 117 % of control
endpoint: median tumor weight (est.), dose: 400.0 mg/kg/injection, schedule: Q07DX005 (ip), vehicle: Klucel (hydroxypropylcellulose) (HPC)
  T/C: 65 % of control

## C(CSC1=NCCN1)CSC1=NCCN1
[5]
  T/C: 98 % of control
[6]
  T/C: 103 % of control
[7]
  T/C: 76 % of control
[8]
  T/C: 102 % of control
[9]
  T/C: 69 % of control

## c1ccc2c(c1)[As]=c1ccccc1=[As]2 (configuration not stated)
endpoint: median tumor weight change, dose: 60.0 mg/kg/injection, schedule: Q01DX001 (ip), vehicle: saline with Tween-80
  T/C: 159 % of control
endpoint: median tumor weight change, dose: 120.0 mg/kg/injection, schedule: Q01DX001 (ip), vehicle: saline with Tween-80
  T/C: 158 % of control
endpoint: median tumor weight change, dose: 240.0 mg/kg/injection, schedule: Q01DX001 (ip), vehicle: saline with Tween-80
  T/C: 31 % of control

## CC(=O)ON(C(C)=O)c1ccc(C(N)=O)cc1
endpoint: median tumor weight change, dose: 62.5 mg/kg/injection, schedule: Q01DX001 (ip), vehicle: saline with Tween-80
  T/C: 68 % of control
[10]
  T/C: 96 % of control
[11]
  T/C: 64 % of control

## CC1OC(=O)C(C(C)C)NC(=O)C(C(C)C)OC(=O)C(C(C)C)NC(=O)C(C)OC(=O)C(C(C)C)NC(=O)C(C(C)C)OC(=O)C(C(C)C)NC(=O)C(C)OC(=O)C(C(C)C)NC(=O)C(C(C)C)OC(=O)C(C(C)C)NC1=O (configuration not stated)
endpoint: mean tumor weight, dose: 1.0 mg/kg/injection, schedule: Q02DX007 (ip), vehicle: saline
  T/C: 119 % of control
endpoint: mean tumor weight, dose: 1.0 mg/kg/injection, schedule: Q07DX006 (ip), vehicle: saline
  T/C: 49 % of control
endpoint: mean tumor weight, dose: 2.0 mg/kg/injection, schedule: Q02DX007 (ip), vehicle: saline
  T/C: 87 % of control
endpoint: mean tumor weight, dose: 2.0 mg/kg/injection, schedule: Q07DX006 (ip), vehicle: saline
  T/C: 110 % of control
endpoint: mean tumor weight, dose: 4.0 mg/kg/injection, schedule: Q02DX007 (ip), vehicle: saline
  T/C: 97 % of control
endpoint: mean tumor weight, dose: 4.0 mg/kg/injection, schedule: Q07DX006 (ip), vehicle: saline
  T/C: 165 % of control
endpoint: mean tumor weight, dose: 8.0 mg/kg/injection, schedule: Q02DX007 (ip), vehicle: saline
  T/C: 103 % of control
endpoint: mean tumor weight, dose: 8.0 mg/kg/injection, schedule: Q07DX006 (ip), vehicle: saline
  T/C: 84 % of control
endpoint: mean tumor weight, dose: 16.0 mg/kg/injection, schedule: Q02DX007 (ip), vehicle: saline
  T/C: 116 % of control
endpoint: mean tumor weight, dose: 16.0 mg/kg/injection, schedule: Q07DX006 (ip), vehicle: saline
  T/C: 70 % of control
endpoint: median tumor weight (est.), dose: 1.25 mg/kg/injection, schedule: Q07DX005 (ip), vehicle: saline with Tween-80
  T/C: 69 % of control
endpoint: median tumor weight (est.), dose: 2.5 mg/kg/injection, schedule: Q07DX005 (ip), vehicle: saline with Tween-80
  T/C: 34 % of control
endpoint: median tumor weight (est.), dose: 5.0 mg/kg/injection, schedule: Q07DX005 (ip), vehicle: saline with Tween-80
  T/C: 86 % of control
endpoint: median tumor weight (est.), dose: 10.0 mg/kg/injection, schedule: Q07DX005 (ip), vehicle: saline with Tween-80
  T/C: 114 % of control
[12]
  T/C: 74 % of control

## O=C(/C=C(\Cl)C(=O)NO)NO
endpoint: median tumor weight change, dose: 62.5 mg/kg/injection, schedule: Q01DX001 (ip), vehicle: suspension in saline
  T/C: 111 % of control
endpoint: median tumor weight change, dose: 125.0 mg/kg/injection, schedule: Q01DX001 (ip), vehicle: suspension in saline
  T/C: 79 % of control
endpoint: median tumor weight change, dose: 250.0 mg/kg/injection, schedule: Q01DX001 (ip), vehicle: suspension in saline
  T/C: 83 % of control

## Cl
[6]
  T/C: 93 % of control
[7]
  T/C: 91 % of control
[8]
  T/C: 67 % of control
[9]
  T/C: 93 % of control
[13]
  T/C: 48 % of control

## Cc1ccccc1N(CC1CO1)CC1CO1 (configuration not stated)
[7]
  T/C: 74 % of control
[8]
  T/C: 79 % of control
[9]
  T/C: 105 % of control
[13]
  T/C: 63 % of control

## COc1ccc2c(c1)CCC(c1ccccc1)=C2c1ccc(OCCN2CCCC2)cc1
endpoint: median tumor weight (est.), dose: 6.25 mg/kg/injection, schedule: Q07DX005 (ip), vehicle: Klucel (hydroxypropylcellulose) (HPC)
  T/C: 119 % of control
[1]
  T/C: 99 % of control and 103 % of control
[2]
  T/C: 92 % of control and 111 % of control
[3]
  T/C: 77 % of control and 80 % of control
[4]
  T/C: 75 % of control and 95 % of control

## C/C=C/c1cc2n(c1)C(=O)c1cc(OC3OC(C)C(NC)C(C)(O)C3O)c(C)c(O)c1NC2O (configuration not stated)
endpoint: median tumor weight (est.), dose: 1.0 micrograms/kg/injection, schedule: Q07DX005 (ip), vehicle: saline
  T/C: 60 % of control

## CCN(CC)CCCC(C)Nc1c2ccc(Cl)cc2nc2ccc(OC)cc12 (configuration not stated)
[5]
  T/C: 88 % of control
[6]
  T/C: 65 % of control
endpoint: median tumor weight (est.), dose: 25.0 mg/kg/injection, schedule: Q07DX005 (ip), vehicle: suspension in saline
  T/C: 60 % of control
[7]
  T/C: 90 % of control
endpoint: median tumor weight (est.), dose: 50.0 mg/kg/injection, schedule: Q07DX005 (ip), vehicle: suspension in saline
  T/C: 94 % of control
[8]
  T/C: 74 % of control
endpoint: median tumor weight (est.), dose: 100.0 mg/kg/injection, schedule: Q07DX005 (ip), vehicle: suspension in saline
  T/C: 50 % of control

## [O-][n+]1c(CN2CCCCC2)nc2cccc3c2c1-c1ccccc1-3
[10]
  T/C: 78 % of control
[11]
  T/C: 104 % of control
endpoint: median tumor weight change, dose: 500.0 mg/kg/injection, schedule: Q01DX001 (ip), vehicle: saline with Tween-80
  T/C: 84 % of control

## O=NN(CCCl)C(=O)NC1CCC(=O)NC1=O (configuration not stated)
endpoint: median tumor weight (est.), dose: 4.0 mg/kg/injection, schedule: Q07DX005 (ip), vehicle: saline with Tween-80
  T/C: 49 % of control
endpoint: median tumor weight (est.), dose: 8.0 mg/kg/injection, schedule: Q07DX005 (ip), vehicle: saline with Tween-80
  T/C: 24 % of control
endpoint: median tumor weight (est.), dose: 13.0 mg/kg/injection, schedule: Q07DX005 (ip), vehicle: saline with Tween-80
  T/C: 12 % of control
[12]
  T/C: 6 % of control

## CCCCNCCCNCCCNC(=O)c1csc(-c2csc(CCNC(=O)C(NC(=O)C(C)C(O)C(C)NC(=O)C(NC(=O)c3nc(C(CC(N)=O)NCC(N)C(N)=O)nc(N)c3C)C(OC3OC(CO)C(O)C(O)C3OC3OC(CO)C(O)C(OC(N)=O)C3O)c3cnc[nH]3)C(C)O)n2)n1 (configuration not stated)
endpoint: median tumor weight (est.), dose: 4.0 mg/kg/injection, schedule: Q07DX005 (ip), vehicle: saline
  T/C: 16 % of control
endpoint: median tumor weight (est.), dose: 8.0 mg/kg/injection, schedule: Q07DX005 (ip), vehicle: saline
  T/C: 10 % of control
endpoint: median tumor weight (est.), dose: 16.0 mg/kg/injection, schedule: Q07DX005 (ip), vehicle: saline
  T/C: 16 % of control

## O=C1C=CN(C2OC(CO)C(O)C2O)C(=O)C1 (configuration not stated)
[5]
  T/C: 97 % of control
[6]
  T/C: 99 % of control
[7]
  T/C: 101 % of control
[8]
  T/C: 120 % of control
[9]
  T/C: 78 % of control

## COc1cc(C)c(C2NC(=O)c3ccccc3N2)cc1C (configuration not stated)
endpoint: median tumor weight change, dose: 125.0 mg/kg/injection, schedule: Q01DX001 (ip), vehicle: Klucel (hydroxypropylcellulose) (HPC)
  T/C: 69 % of control
endpoint: median tumor weight change, dose: 250.0 mg/kg/injection, schedule: Q01DX001 (ip), vehicle: Klucel (hydroxypropylcellulose) (HPC)
  T/C: 76 % of control
endpoint: median tumor weight change, dose: 500.0 mg/kg/injection, schedule: Q01DX001 (ip), vehicle: Klucel (hydroxypropylcellulose) (HPC)
  T/C: 91 % of control
endpoint: median tumor weight change, dose: 1000.0 mg/kg/injection, schedule: Q01DX001 (ip), vehicle: Klucel (hydroxypropylcellulose) (HPC)
  T/C: 107 % of control
endpoint: median tumor weight change, dose: 2000.0 mg/kg/injection, schedule: Q01DX001 (ip), vehicle: Klucel (hydroxypropylcellulose) (HPC)
  T/C: 84 % of control

## [N-]=[N+]=CC(=O)CCC(=O)C=[N+]=[N-]
endpoint: median tumor weight (est.), dose: 6.25 mg/kg/injection, schedule: Q07DX005 (ip), vehicle: DMSO
  T/C: 65 % of control
endpoint: median tumor weight (est.), dose: 12.5 mg/kg/injection, schedule: Q07DX005 (ip), vehicle: DMSO
  T/C: 73 % of control
endpoint: median tumor weight (est.), dose: 25.0 mg/kg/injection, schedule: Q07DX005 (ip), vehicle: DMSO
  T/C: 78 % of control
endpoint: median tumor weight (est.), dose: 50.0 mg/kg/injection, schedule: Q07DX005 (ip), vehicle: DMSO
  T/C: 38 % of control
endpoint: median tumor weight (est.), dose: 100.0 mg/kg/injection, schedule: Q07DX005 (ip), vehicle: DMSO
  T/C: 47 % of control
